One test deals with bladder. Briefly: Test Example 4: micturition contraction interval in rats under partial restraint, oral. Type of test: in vivo, rat (male SD strain). As to conditions: Rattus norvegicus, 1.0 mg/kg oral, pre-administration = 100, second part of Table 4. From the text:
As a control compound, cromakalim was used.

The test system of test [1] is detrusor muscle. Briefly: Test Example 2: relaxation of guinea pig bladder strips, rhythmical contraction induced by 15 mM KCl. It counts as cell-based, guinea pig (male albino Hartley). As to conditions: Cavia porcellus, concentration decreasing detrusor contraction by 50%. From the text:
(§1) The activity of Compound (I) as a smooth muscle relaxant which is useful as a therapeutic agent for urinary incontinence can be observed, for example, using the following tests. In the following Test Examples 1 and 2, "IC50 " means the concentration of a test compound which induces the decrease in the contraction of detrusor muscle by 50%.
(§2) Male albino Hartley guinea pigs (350-550 g) were used as test animals. Each animal was exsanguinated to death under pentobarbital sodium anesthesia. The lower abdominal cavity was opened and its bladder was positioned. The connective tissue and the fat tissue around the bladder were removed, and the bladder was cleaned. After two pelvic nerves on the surface of the abdominal side of the bladder were dissected, the bladder was taken out on the entrance of ureter. The bladder was washed with a Krebs-Henseleit buffer [composition (mM): NaCl 118, KCl 4.7, MgSO4 1.2, KH2 PO4 1.2, CaCl2 2.5, NaHCO3 25, and D-glucose 11.1], and then put on a gauze patch soaked in the buffer in a Petri dish. The dome and the trigone of the bladder were dissected and discarded. The back of the bladder was cut vertically in the middle with scissors, and the bladder was put flat on the gauze patch. The dome tip and the side of the trigone of the bladder were dissected and discarded, and the mucosa of the bladder was removed. The back of the bladder was cut vertically to get 6 strips which are ca. 2.0 mm wide and ca. 10 mm long.
(§3) One end of each strip was fixed on a plastic supporter rod, and the other end was fixed on a clip connected to a suture thread. The supporter was fixed in 20 ml of an organ bath and the suture thread connected to the clip was fixed on a force-displacement transducer (NIHON KODEN TB-611T). The tissue was suspended in a Krebs-Henseleit buffer, and the bath solution was warmed to 37° C. and bubbled with a gas mixture of 5% CO2 and 95% O2. The pH of the solution was adjusted to about 7.4. The transducer was connected to a polygraph (NIHON KODEN AP-621G), and the change of tension was recorded on a recorder (YOKOGAWA type 3066). The polygraph was graduated by 0.5 g/cm.
The effect of a smooth muscle relaxant varies with the concentration of KCl based on the difference of an action mechanism. In the following Test Example, KCl was used at a concentration different from that in Test Example 1.
A sample of the excised bladder was prepared in the same manner as in Test Example 1, and the tension of the preparation was measured. After the tension of the tissue was adjusted to be a steady state at 1 g, 15 mM KCl was applied. After the rhythmical contraction was confirmed to appear by KCl, the tissue was washed. Then, 15 mM KCl was applied again. After the rhythmical contraction took place constantly and the tissue reached the steady state, a test compound was applied by the cumulative method (half-logarithmic incremence). The contact time at each concentration was 30 minutes. The activity of the compound was expressed as the maximum relaxation rate (%) of the tension induced by the agonist.

For test [2], the system named is detrusor muscle. Briefly: Test Example 1: relaxation of guinea pig bladder strips contracted with 50 mM KCl. It counts as cell-based, guinea pig (male albino Hartley). To be noted: Cavia porcellus; contraction induced by 50 mM KCl; concentration decreasing detrusor contraction by 50%.
Description: as §1, §2, §3
After the tissue was incubated in the buffer for 15 minutes without preloading, tension was added thereto for about one hour. The preloading tension added was 1.5 g and it was relaxed to about 1 g. The tissue was washed at intervals of 15 minutes and the tension was adjusted to 1.5 g just before washing. The tension of the tissue was adjusted to be a steady state at 1 g. After this equilibrium time, 50 mM KCl (the whole content in the bath) was added, and the tissue was washed 10 minutes later. KCl was added to the tissue at intervals of 30 minutes, followed by washing 10 minutes later, and KCl was applied repeatedly until the developed tension induced by KCl becomes constant. When the tissue was confirmed to contract constantly by the application of KCl and relax to the steady state after washing, 50 mM KCl was applied again. After the tissue reached the steady state and the base line was obtained, a test compound was applied by the cumulative method (half-logarithmic incremence). The contact time at each concentration was 30 minutes. The activity of the compound was expressed as the maximum relaxation rate (%) of the tension induced by the agonist.

Each structure is given as a SMILES string. A value given as a limit tells only on which side of the number the result lay.

What is called IC50 is the midpoint of a concentration-inhibition curve. High values mean weaker potency in that assay, low ones greater potency in that assay.

For the compound `CC(O)(C(=O)Nc1ccc2c(c1)OCc1ccccc1C2=O)C(F)(F)F` (centres unmarked) [Compound 2, 3-(3,3,3-Trifluoro-2-hydroxy-2-methylpropanoylamino)-6,11-dihydrodibenz[b,e]oxepin-11-one], the response vs control in vivo at 1 mg/kg in the test on bladder (1 hr after administration) was 121 ± 6.2%; in the test with bladder (2 hr after administration), 135 ± 12.3%; with bladder (3 hr after administration), 144 ± 16.3%; in the test on bladder (4 hr after administration) it was 141 ± 15.6%; in the test on bladder (5 hr after administration) it was 145 ± 16%. The IC50 with detrusor muscle [1] is 3.4 µM; with detrusor muscle [2] it was 3.6 µM.
In the case of `CC(O)(C(=O)Nc1ccc2c(c1)C(=O)c1ccccc1-2)C(F)(F)F` (centres unmarked) [Compound 5, 2-(3,3,3-Trifluoro-2-hydroxy-2-methylpropanoylamino)fluoren-9-one], the response vs control in vivo at 1 mg/kg in the test with bladder (1 hr after administration) turned out to be 112 ± 7%; with bladder (2 hr after administration), 136 ± 16.5%; in the test with bladder (3 hr after administration), 137 ± 14.5%; in the test with bladder (4 hr after administration) it was 132 ± 9.5%; in the test with bladder (5 hr after administration), 131 ± 17.7%. In addition, the half-inhibitory concentration (IC50) in the test with detrusor muscle [1] worked out at 2.1 µM; in the test on detrusor muscle [2], 8 µM.
Regarding `CC(O)(C(=O)Nc1ccc2c(c1)OCc1ccsc1C2=O)C(F)(F)F` (centres unmarked) [Compound 8, 7-(3,3,3-Trifluoro-2-hydroxy-2-methylpropanoylamino)-4,10-dihydrothieno[3,2-c][1]benzoxepin-10-one], the response vs control in vivo at 1 mg/kg in the test on bladder (1 hr after administration) came to 130 ± 9.3%; with bladder (2 hr after administration), 142 ± 12.6%; in the test with bladder (3 hr after administration) it was 144 ± 8.8%; in the test with bladder (4 hr after administration) it was 162 ± 14.6%; in the test on bladder (5 hr after administration), 189 ± 19.6%. Also, the IC50 with detrusor muscle [1] stood at 0.5 µM; in the test with detrusor muscle [2] it was 5.2 µM.
Regarding `CC(O)(C(=O)Nc1cccc2c1C(=O)c1ccoc1CO2)C(F)(F)F` (centres unmarked) [Compound 9, 5-(3,3,3-Trifluoro-2-hydroxy-2-methylpropanoylamino)-4,10-dihydrofuro[2,3-c][1]benzoxepin-4-one], the response vs control in vivo at 1 mg/kg worked out at 123 ± 6.8% in the test with bladder (1 hr after administration); 131 ± 9.3% in the test on bladder (2 hr after administration); 133 ± 9.1% in the test on bladder (3 hr after administration); 145 ± 10% in the test on bladder (4 hr after administration); 155 ± 12.2% in the test on bladder (5 hr after administration). For the same compound, the half-inhibitory concentration (IC50) in the test on detrusor muscle [1] was found to be 4.6 µM; in the test on detrusor muscle [2], 4.3 µM.
For `CC(O)(C(=O)Nc1cccc2c1C(=O)c1ccoc1CS2)C(F)(F)F` (centres unmarked) [Compound 42, 5(3,3,3-Trifluoro-2-hydroxy-2-methylpropanoylamino)-4,10-dihydrofuro[2,3-c][1]benzothiepin-4-one], the results for the IC50 in the test with detrusor muscle [1] and in the test on detrusor muscle [2] were 1.5 µM and 4.7 µM, respectively.
Take `CC(O)(C(=O)Nc1ccc2c(c1)SCc1occc1C2=O)C(F)(F)F` (centres unmarked) [Compound 43, 7-(3,3,3-Trifluoro-2-hydroxy-2-methylpropanoylamino)-4,10-dihydrofuro[2,3-c][1]benzothiepin-4-one]: the concentration for half-maximal inhibition (IC50) with detrusor muscle [1] worked out at 2.1 µM; in the test with detrusor muscle [2], 3.5 µM.
On the same counts, the results for `CC(O)(C(=O)Nc1ccc2c(c1)SCc1ccsc1C2=O)C(F)(F)F` (centres unmarked) [Compound 45, 7-(3,3,3-Trifluoro-2-hydroxy-2-methylpropanoylamino)-4,10-dihydrothieno[3,2-c][1]benzothiepin-10-one] are 2.5 µM and over 10 µM.
On the same counts, the results for `CC(O)(C(=O)Nc1ccc2c(c1)[S+]([O-])Cc1ccccc1C2=O)C(F)(F)F` (centres unmarked) [Compound 49, 5-Oxo-3-(3,3,3-trifluoro-2-hydroxy-2-methylpropanoylamino)-6,11-dihydrodibenzo[b,e]thiepin-11-one] are 4.1 µM and 7.8 µM.
For the compound `CC(O)(C(=O)Nc1ccc2c(c1)CCc1ccccc1C2=O)C(F)(F)F` (centres unmarked) [Compound 54, 2-(3,3,3-Trifluoro-2-hydroxy-2-methylpropanoylamino)-10,11-dihydro-5H-dibenzo[a,d]cyclohepten-5-one], the IC50 is over 10 µM with detrusor muscle [1] and 3.8 µM with detrusor muscle [2].
With `CC(O)(C(=O)Nc1ccc2c(c1)CCc1ncccc1C2=O)C(F)(F)F` (centres unmarked) [Compound 59, 8-(3,3,3-Trifluoro-2-hydroxy-2-methylpropanoylamino)-10,11-dihydro-5H-benzo[4,5]cyclohepta[1,2-b]pyridin-5-one], the IC50 in the test on detrusor muscle [1] is 5 µM; with detrusor muscle [2], over 10 µM.
On to `CC(O)(C(=O)Nc1cccc2ccc3ccccc3c(=O)c12)C(F)(F)F` (centres unmarked) [Compound 60, 4-(3,3,3-Trifluoro-2-hydroxy-2-methylpropanoylamino)-5H-dibenzo[a,d]cyclohepten-5-one], for which the results for the IC50 with detrusor muscle [1] and in the test with detrusor muscle [2] were 4.1 µM and over 10 µM, respectively.
As for `CC(O)(C(=O)Nc1ccc2ccc3ccccc3c(=O)c2c1)C(F)(F)F` (centres unmarked) [Compound 61, 3-(3,3,3-Trifluoro-2-hydroxy-2-methylpropanoylamino)-5H-dibenzo[a,d]cyclohepten-5-one], the IC50 with detrusor muscle [1] was determined as 2.3 µM; in the test with detrusor muscle [2], 3.2 µM.
`CC(O)(C(=O)Nc1ccc2c(=O)c3ccccc3ccc2c1)C(F)(F)F` (centres unmarked) [Compound 62, 2-(3,3,3-Trifluoro-2-hydroxy-2-methylpropanoylamino)-5H-dibenzo[a,d]cyclohepten-5-one]: the values for the IC50 in the test on detrusor muscle [1] and with detrusor muscle [2] were over 10 µM and 9.3 µM, respectively.
As to `CC(O)(C(=O)Nc1cccc2ccc3ccsc3c(=O)c12)C(F)(F)F` (centres unmarked) [Compound 63, 9-(3,3,3-Trifluoro-2-hydroxy-2-methylpropanoylamino)-10H-benzo[5,6]cyclohepta[1,2-b]thiophen-10-one], the IC50 was over 10 µM with detrusor muscle [1] and 3.3 µM with detrusor muscle [2].
On the same counts, the results for `CC(O)(C(=O)Nc1ccc2c(=O)c3sccc3ccc2c1)C(F)(F)F` (centres unmarked) [Compound 65, 7-(3,3,3-Trifluoro-2-hydroxy-2-methylpropanoylamino)-10H-benzo[5,6]cyclohepta[1,2-b]thiophen-10-one] are 2.3 µM and 4.6 µM.
Consider `CC(O)(C(=O)Nc1cccc2ccc3sccc3c(=O)c12)C(F)(F)F` (centres unmarked) [Compound 66, 5-(3,3,3-Trifluoro-2-hydroxy-2-methylpropanoylamino)-4H-benzo[4,5]cyclohepta[1,2-b]thiophen-4-one], for which the IC50 came to 2.1 µM in the test on detrusor muscle [1] and 1.4 µM in the test with detrusor muscle [2].
In the case of `CC(O)(C(=O)Nc1cccc2ccc3ccoc3c(=O)c12)C(F)(F)F` (centres unmarked) [Compound 67, 9-(3,3,3-Trifluoro-2-hydroxy-2-methylpropanoylamino)-10H-benzo[5,6]cyclohepta[1,2-b]furan-10-one], the results for the half-inhibitory concentration (IC50) in the test with detrusor muscle [1] and in the test on detrusor muscle [2] were 3.8 µM and 6.9 µM, respectively.
For `CC(O)(C(=O)Nc1ccc2c(=O)c3occc3ccc2c1)C(F)(F)F` (centres unmarked) [Compound 68, 7-(3,3,3-Trifluoro-2-hydroxy-2-methylpropanoylamino)-10H-benzo[5,6]cyclohepta[1,2-b]furan-10-one], in that order: 3.5 µM and over 10 µM.

The values above are taken from patent publication US5726325A, “Tricyclic compounds” (Kyowa Hakko Kogyo Co., Ltd., priority 1995, dated 1998).
